Source: publication PMC11767297, “6-Bromoindole- and 6-Bromoindazole-Based Inhibitors of Bacterial Cystathionine γ-Lyase Containing 3-Aminothiophene-2-Carboxylate Moiety” (Molecules, 2025)
Like-named read-outs stand apart in the source and are kept apart here. Each block holds one molecule with its values, some of them ahead of it.

Key:
[1] = system: B. subtilis 168 strain; experiment: Kanamycin A-potentiating activity, growth curves; type: cell-based, Bacillus subtilis; settings: potentiator concentration in the presence of 0.25 µg Km (MICKm = 2 µg/mL); potentiator varied with an interval of 10 μM
Procedure: The potentiating properties and minimum inhibitory concentration (MIC) were assessed similarly to the testing with gentamicin, and additionally, the previously reported MNS1 was used for comparison (Figure 3). The MIC of kanamycin A for B. subtilis cells is 2 μg/mL. […] A lower cytotoxic effect on HEK273T culture (Table 1) allows us to conclude that MNS3 is the hit compound in the series (the experimental curves for CC50 estimation via the MTT test are given in the Supplementary Information File).
(§1) Gentamicin-potentiating activity testing of the compounds in B. subtilis. The growth curves of B. subtilis were obtained with a Bioscreen C automated growth curve analysis system (Oy Growth Curves Ab, Finland, Helsinki). The B. subtilis strain 168 was grown overnight in LB at 37 °C and diluted with fresh medium (1:100) containing the antibiotic and a test compound as specified in the text and figure captions. Aliquots (150 μL) of each mixture were added into plate wells in triplicate and incubated with continuous agitation at 37 °C. The optical density at 600 nm (OD600) was recorded automatically for 24 h. The results were averaged over three replicate experiments to plot the time dependences of bacterial growth.
Figure 3 Determination of the potentiating properties of compounds.

[2] = system: hydrogen sulfide production by B. subtilis 168 cells; experiment: Hydrogen sulfide generation, lead acetate paper strips; type: cell-based, Bacillus subtilis; settings: B. subtilis cell culture, Figure 2F
Procedure: The generation of hydrogen sulfide in B. subtilis cells was monitored according to the published protocol using lead acetate as a colorimetric sensor [29]. The inner surface of a cell culture flask was equipped above the level of the liquid with a standardized paper strip soaked with 2% aq. Pb(OAc)2. Overnight cultures were diluted with LB (1:50) and incubated at 37 °C under aeration conditions for 16–18 h. The test compounds (MNS1 and NL2) were used at 32 μM; LB without supplements was used as a negative control. Paper strips stained with the formed PbS precipitate were scanned using an AlphaImager gel imaging system (BioTechne, USA, Minneapolis, Minnesota). The results were normalized to the optical density of the culture.
(§2) Figure 2 Determination of the potentiating properties of compounds. Representative growth curves of B. subtilis 168 strain in the presence of 0.1 μg/mL gentamicin (Gm) and potentiators: MNS2 (A), MNS3 (B), MNS4 (C), MNS5 (D) and MNS6 (E). The cells were grown at 37 °C with aeration in a Bioscreen C automated growth assay system. The curves represent the mean values of three independent experiments with an error of <5%. Evaluation of hydrogen sulfide production by B. subtilis 168 cells in the presence of the potentiators studied (F): MNS2 (100 µM), MNS3 (90 µM), MNS4 (60 µM), MNS5 (60 µM) and MNS6 (100 µM). The filter paper strips soaked in 2% lead acetate solution show brown staining with PbS salt as a result of H2S evaporation by the bacterial suspension. The numbers indicate H2S production relative to wild-type cells. TEXT PRINTED IN THE PICTURE: (F) MNS2: 100% | (F) MNS3: >120% | (F) MNS4: >120% | (F) MNS5: <35% | (F) MNS6: <35% DOUBTS OF THE COPYIST ABOUT THIS PICTURE: Panel F: the picture prints no measure for the percentages, so they are given without one. / Panel F: the column "Control" (100%) is left out because it is not a substance.

[3] = system: B. subtilis 168 strain; experiment: Gentamicin-potentiating activity, growth curves (Bioscreen C); type: cell-based, Bacillus subtilis; settings: for MIC with Gm (B. subtilis): potentiator concentration in the presence of 0.1 µg Gm (0.1 MIC; MICGm = 1 µg/mL), potentiator varied with an interval of 10 μM
Procedure: We selected the B. subtilis 168 strain as the model micro-organism to determine the potentiating properties of the new compounds. The active center of the proposed target protein, cystathionine γ-lyase, has a conservative structure for a wide range of micro-organisms, including pathogens; thus, B. subtilis can be used as a less toxic model object containing the CGL enzyme for testing. The efficiency of CGL inhibitors was assessed by the standard minimum inhibitory concentration (MIC) assay. The potentiating properties were investigated according to the technique reported previously for NL2 [10]. The MIC of gentamicin for B. subtilis cells is 1 μg/mL, which is consistent with known CLSI breakpoints for the genus Bacillus. […] In addition, we tested the effect of the compounds on the generation of hydrogen sulfide by the B. subtilis cell culture (Figure 2F). […] The latter effect, however, may be attributed to the presence of the sulfur atom in the structure of these inhibitors assuming their possible hydrolysis if not bound to the enzyme in the cellular environment.
as §1
as §2, with “TEXT PRINTED IN THE PICTURE: (F) MNS2: 100% | (F) MNS3: >120% | (F) MNS4: >120% | (F) MNS5: <35% | (F) MNS6: <35% DOUBTS OF THE COPYIST ABOUT THIS PICTURE: Panel F: the picture prints no measure for the percentages, so they are given without one. / Panel F: the column "Control" (100%) is left out because it is not a substance.” left out

[4] = MTT test, cytotoxicity; type: cell-based; settings: human, HEK293T cells; MTT test, 72 h; concentration required to inhibit 50% cell culture growth; read-out: CC50 of compounds (HEK273T)
Procedure: (§3) HEK293T cells were grown in the DMEM:F12 (2:1) medium supplemented with 10% FBS (BioSera, Cholet, France), 2 mM L-glutamine, 100 U/mL penicillin and 100 μg/mL streptomycin in the presence of 5% CO2 at 37 °C. Cells were re-seeded every three days at a ratio of 1:3 or 1:5.
(§4) Stock solutions were diluted in DMSO (BioReagent of molecular biology grade, Sigma, St. Louis, MO, USA), and the final DMSO concentration was 1%. After 24 h (30–40% monolayer), the solutions of the studied compounds diluted at different concentrations were introduced to the culture medium. After the incubation at 37 °C in 5% CO2 for 72 h, a freshly prepared solution of thiazolyl blue tetrazolium bromide at a final concentration of 0.4 mg/mL was added to each well of the plate. Incubation was performed at +37 °C for 2 h. The medium containing unreacted MTT was removed via aspiration. The formed formazan dye was dissolved in 100 µL of isopropanol added to each well of the plate. The result of the analysis was evaluated using a Tecan Spark spectrophotometer (absorbance at 544 nm).

[5] = target: bCSE; settings: cited from earlier work
[6] = system: bCSE; set-up: method as in PMID 34112687, PMID 37110802, doi:10.1016/j.mencom.2024.02.030, PMID 39970094, PMID 38771206; settings: Figure 1; cited from earlier work
[7] = system: hCSE; set-up: method as in PMID 34112687, PMID 37110802, doi:10.1016/j.mencom.2024.02.030, PMID 39970094, PMID 38771206; settings: Figure 1; cited from earlier work
[8] = system: HEK273T; experiment: MTT test, cytotoxicity; type: cell-based; settings: in words, conclusions
Procedure: as §3, §4

[9] = system: B. subtilis cells; experiment: MIC of the antibiotic alone, microdilution method (CLSI); type: cell-based, Bacillus subtilis
Procedure: Standardized MIC was determined using the microdilution method, as recommended by the Clinical and Laboratory Standards Institute (CLSI). […] The B. subtilis inoculate (100 μL) contained 1.0 × 10^6 CFU/mL. The minimum inhibitory concentration (MIC) was defined as the lowest antibiotic concentration that prevented turbidity in the inoculate following incubation at 37 °C for a duration of 24 h. Gentamycin was used at 0.1 μg/mL (10% of MIC) in further experiments.

[10] = target: hCSE; set-up: method as in PMID 34112687, PMID 37110802, doi:10.1016/j.mencom.2024.02.030, PMID 39970094, PMID 38771206; settings: Figure 1; cited from earlier work; remark: listed apart in the source
[11] = system: B. subtilis 168 strain; set-up: method as in PMID 39970094; settings: parent MNS1, in the presence of 0.1 µg Gm; previously known data for gentamicin potentiation; cited from earlier work

MIC with Km (B. subtilis) [1]: 100 µM
MIC with Gm (B. subtilis) [3]: ~60 µM
Molecule: Cc1oc(Cn2ncc3ccc(Br)cc32)cc1C(=O)O [MNS5, 5-((6-Bromo-1H-indazol-1-yl)methyl)-2-methylfuran-3-carboxylic Acid]
rate of hydrogen sulfide generation compared to the control group of cells [2]: significantly reduced
CC50 at 72 h [4]: 250 µM

Molecule: Cc1oc(Cn2cc3ccc(Br)cc3n2)cc1C(=O)O [MNS6, 5-((6-Bromo-2H-indazol-2-yl)methyl)-2-methylfuran-3-Carboxylic Acid]
rate of hydrogen sulfide generation compared to the control group of cells [2]: significantly reduced
CC50 at 72 h [4]: 260 µM

Molecule: O=C(O)c1ccc(Cn2ccc3ccc(Br)cc32)cc1 [3h]
Kd ([5]; Figure 1, read-out: KD (bCSE)): 0.8 ± 0.3 µM

Molecule: Nc1cc(Cn2ccc3ccc(Br)cc32)sc1C(=O)[O-].[K+] [MNS2, Potassium 3-Amino-5-((6-bromo-1H-indol-1-yl)methyl)thiophene-2-carboxylate]
rate of hydrogen sulfide generation compared to the control group of cells [2]: enhanced
inhibition of B. subtilis growth in combinations with gentamicin ([3]; concentration range from 50 to 100 µM): failed to inhibit
CC50 at 72 h [4]: 25 µM

Molecule: Cc1oc(Cn2ccc3ccc(Br)cc32)cc1C(=O)O [NL2]
IC50 [6]: 1.8 ± 0.5 µM
Kd ([5]; Figure 1, marked "our data", read-out: KD (bCSE)): 1.1 ± 0.3 µM
IC50 [7]: 25.3 ± 2.6 µM

Molecule: Nc1cc(Cn2cc3ccc(Br)cc3n2)sc1C(=O)[O-].[K+] [MNS4, Potassium 3-Amino-5-((6-bromo-2H-indazol-2-yl)methyl)thiophene-2-carboxylate]
MIC with Km (B. subtilis) [1]: 70 µM
MIC with Gm (B. subtilis) [3]: ~60 µM
cytotoxicity in HEK273T [8]: moderate cytotoxicity
CC50 at 72 h [4]: 87 µM

Molecule: O=C(O)c1cc(Cn2ccc3ccc(-c4cc5cccc(Cl)c5s4)cc32)n[nH]1 [NL3]
IC50 [6]: 0.7 ± 0.2 µM
IC50 [7]: 3.4 ± 0.8 µM

Molecule: kanamycin A
MIC of kanamycin A for B. subtilis cells [9]: 2 µg/mL

Molecule: O=C(O)CNC(=O)Cn1ccc2ccc(Br)cc21 [NL1]
IC50 [6]: 5.8 ± 2.7 µM
IC50 [7]: 29.2 ± 2 µM

MIC with Km (B. subtilis) [1]: 100 µM
Molecule: Nc1csc(Cn2ccc3ccc(Br)cc32)c1 [MNS1]
Kd [10]: 11.6 ± 0.1 µM
MIC with Gm (B. subtilis) [11]: ~50 µM
CC50 at 72 h [4]: 30 µM
Kd ([5]; Figure 1, read-out: KD (bCSE)): 0.59 ± 0.04 µM
Kd ([5]; introduction, read-out: binding constant with CGL): ~0.6 µM

MIC ([9]; Bacillus subtilis, 37 °C, 24 h, read-out: MIC of gentamicin for B. subtilis cells): 1 µg/mL
Molecule: CNC(C)C1CCC(N)C(OC2C(N)CC(N)C(OC3OCC(C)(O)C(NC)C3O)C2O)O1 (stereo not shown) [gentamicin]

Molecule: Nc1cc(Cn2ncc3ccc(Br)cc32)sc1C(=O)[O-].[K+] [MNS3, Potassium 3-Amino-5-((6-bromo-1H-indazol-1-yl)methyl)thiophene-2-carboxylate]
MIC with Km (B. subtilis) [1]: 90 µM
rate of hydrogen sulfide generation compared to the control group of cells [2]: enhanced
MIC with Gm (B. subtilis) [3]: ~90 µM
cytotoxicity in HEK273T [8]: moderate cytotoxicity
CC50 at 72 h [4]: 190 µM
